Active and inactive are the calls of the source.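 The calls were made as follows: active = lipid-stain IC50 at or below a set limit, with nuclear-stain toxicity IC50 at least five times higher; inactive = the rest.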
Assays:
[1] = system: DAPI; assay: triacylglycerol accumulation inhibitor potency, dose response, cell-based, panel, Nile Red and DAPI fluorescence, H9c2 (AID 651630); conditions: H9c2 cells, DAPI nuclear fluorescence (cytotoxicity counter-readout), oleic acid;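 also: cells exposed to compound overnight before fixation and staining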
[2] = system: TAG; assay: as above; conditions: H9c2 cells, Nile Red TAG fluorescence, oleic acid

Structure (SMILES)	IC50 cytotoxicity (DAPI nuclear signal decrease) ([1]; mean of runs)	IC50 cytotoxicity (DAPI nuclear signal decrease) ([1]; run 1) [µM]	IC50 cytotoxicity (DAPI nuclear signal decrease) ([1]; run 2) [µM]	IC50 ([2]; mean of runs)	IC50 ([2]; run 1) [µM]	IC50 ([2]; run 2) [µM]
CCCCCc1cc(=O)oc2c(C(CCN3CCN(c4ccccc4)CC3)c3ccc4c(c3)OCO4)c(OC)cc(OC)c12 (stereo unspecified)	> 25 µM (inactive)	> 25	> 25	8.04 µM	8.42	7.65
C=CC[C@@H](CC(=O)N(CCO)Cc1ccccc1)C(=O)N[C@H](COC(=O)[C@@H](CC=C)Cc1ccc(F)cc1)C(C)(C)C	–	> 25	> 25	4.28 µM	3.51	5.05
Cc1ccc(S(=O)(=O)NC2=C(N3CCN(c4ccccc4F)CC3)C(=O)c3ccccc3C2=O)cc1	> 25 µM (inactive)	> 25	> 25	8.82 µM	8.52	9.11
CN(C)CCNC(=O)c1cccc(-c2cnc3c(NC=O)cc(-c4cccc(C(F)(F)F)c4)cn23)c1	> 25 µM (inactive)	> 25	> 25	> 25 µM (inactive)	> 25	> 25
COc1ccc(-c2cc(NC=O)c3ncc(-c4ccc(OC)c(OC)c4)n3c2)cc1	–	> 25	5.58	13.2 µM	12.5	13.9
COc1ccc(CC(N)c2csc(NC(=O)Nc3ccccc3-c3ccccc3)n2)cc1 (stereo unspecified)	17.6 µM (inactive)	19.3	15.9	–	> 25	15.5
Cc1ccc(-c2csc(NC(=O)CSc3nc4ccccc4c(=O)n3CCCN(C)C)n2)cc1	> 25 µM (inactive)	> 25	> 25	7.04 µM	7.46	6.62
O=C(Nc1ccccc1)c1nc[nH]c1C(=O)NCCCCCCNC(=O)c1[nH]cnc1C(=O)Nc1ccccc1	> 25 µM (inactive)	> 25	> 25	–	24.9	> 25
O=C(c1ccoc1)N1CCN(c2cc(-c3ccccc3)nc3cc(-c4ccc(Br)cc4)nn23)CC1	> 25 µM (inactive)	> 25	> 25	12.1 µM	12.8	11.3
COC(=O)[C@]1(CC(C)C)N[C@H](c2ccc(-c3ccc(F)cc3)cc2)[C@@H]2C(=O)N(C)C(=O)[C@@H]21	> 25 µM (inactive)	> 25	> 25	14.9 µM	14.6	15.1
CCOC(=O)CSc1cccc2cccnc12	> 25 µM (inactive)	> 25	> 25	> 25 µM (inactive)	> 25	> 25
COCCCNC(=O)C(=O)Nc1ccc2c(c1)N(S(=O)(=O)c1cccs1)CCC2	> 25 µM (inactive)	> 25	> 25	–	7.64	> 25
CCOc1ccc(CCNC(=O)CN2CCN(Cc3ccccc3C)C2=O)cc1OCC	–	> 25	> 25	2.19 µM	1.85	2.54
CC(C)N(C(=O)[C@H]1C[C@H](CC(=O)NCc2cccc(C(F)(F)F)c2)C(=O)N2CCc3c([nH]c4ccc(Cl)cc34)[C@]12C)C(C)C	> 25 µM (inactive)	> 25	> 25	10.6 µM	9.86	11.4
CCOc1c(Cl)cc(/C=C/C(=O)N(CC)CC(=O)NCc2cccs2)cc1OC	> 25 µM (inactive)	> 25	> 25	17 µM (inactive)	19.2	14.8
CCOc1ccccc1NC(=O)CCC(=O)Nc1ccccc1OCC	> 25 µM (inactive)	> 25	> 25	> 25 µM (inactive)	> 25	> 25
CC(C)C[C@@H](CN1CCCC1CN1C(=S)NC[C@@H]1Cc1ccc(O)cc1)N1C[C@H](Cc2ccccc2)N(CC2CCCCC2)C1=S (stereo partly specified)	21.8 µM (inactive)	21.7	21.8	> 25 µM (inactive)	> 25	> 25
CCOC(=O)c1c(CSC(=N)N)n(-c2ccccc2)c2cc(Br)c(OC(C)=O)cc12	> 25 µM (inactive)	> 25	> 25	18 µM (inactive)	17.1	18.9
CCCCCCCCn1c(N2CCN(c3cccc(Cl)c3)CC2)nc2c1c(=O)[nH]c(=O)n2C	> 25 µM (inactive)	> 25	> 25	> 25 µM (inactive)	> 25	> 25
COc1cc(-c2cnc3c(NC=O)cc(-c4cccnc4)cn23)cc(OC)c1OC	> 25 µM (inactive)	> 25	> 25	15.8 µM (inactive)	14.5	17
Cc1cc(N2CCOCC2)n2nc(C)c(-c3ccccc3)c2n1	> 25 µM (inactive)	> 25	> 25	–	14.6	> 25
Cn1nnc2c[n+](CC(=O)c3ccc(Cl)cc3)cc(Br)c21	21.5 µM (inactive)	20.9	22.1	13.5 µM	13.9	13.2
CCCCOc1ccc(CSC2=NCCN2)cc1[N+](=O)[O-]	> 25 µM (inactive)	> 25	> 25	> 25 µM (inactive)	> 25	> 25
Cc1cc(C)cc(-n2c3ccc(NC(=O)Cc4cccc5ccccc45)cc3c(=O)n2C)c1	> 25 µM (inactive)	> 25	> 25	–	21.7	> 25

Source: PubChem BioAssay AID651630 (Sanford-Burnham Center for Chemical Genomics, 2012)
